Assay results: ChEMBL document CHEMBL5321269, “Discovery, synthesis and biological evaluation of a series of N-(phenylcarbamothioyl)-2-napthamides as inhibitors of Claudin-1” (Bioorg Med Chem, 2023)

Columns and labels:
SW-620 = test: Cytotoxicity against human SW620 cells assessed as cell growth inhibition at 25 uM relative to control; assay type: functional
[1] = Protein binding in human plasma assessed as unbound fraction; assay type: ADME, cell-free
[2] = Protein binding in mouse plasma assessed as unbound fraction; assay type: ADME, cell-free
[3] = Half life in CD1 mouse at 5 mg/kg, ip; assay type: ADME, organism-based; conditions: in vivo
[4] = AUCinfinity in CD1 mouse at 5 mg/kg, ip; assay type: ADME, organism-based; parameters: dose 5 mg/kg, route ip; conditions: in vivo
CYP3A4 = CYP3A4 (Homo sapiens, UniProt P08684); test: Inhibition of CYP3A4 (unknown origin) at 10 uM relative to control; assay type: ADME
CYP2C19 = CYP2C19 (Homo sapiens, UniProt P33261); test: Inhibition of CYP2C19 (unknown origin) at 10 uM relative to control; assay type: ADME
[5] = Mean residence time in CD1 mouse at 5 mg/kg, ip; assay type: ADME, organism-based; conditions: in vivo
CYP2D6 = CYP2D6 (Homo sapiens, UniProt P10635); test: Inhibition of CYP2D6 (unknown origin) at 10 uM relative to control; assay type: ADME
[6] = Cmax in CD1 mouse at 5 mg/kg, ip; assay type: ADME, organism-based; parameters: dose 5 mg/kg, route ip; conditions: in vivo
[7] = Tmax in CD1 mouse at 5 mg/kg, ip; assay type: ADME, organism-based; conditions: in vivo

CYP2C19, sequence (P33261 whole entry): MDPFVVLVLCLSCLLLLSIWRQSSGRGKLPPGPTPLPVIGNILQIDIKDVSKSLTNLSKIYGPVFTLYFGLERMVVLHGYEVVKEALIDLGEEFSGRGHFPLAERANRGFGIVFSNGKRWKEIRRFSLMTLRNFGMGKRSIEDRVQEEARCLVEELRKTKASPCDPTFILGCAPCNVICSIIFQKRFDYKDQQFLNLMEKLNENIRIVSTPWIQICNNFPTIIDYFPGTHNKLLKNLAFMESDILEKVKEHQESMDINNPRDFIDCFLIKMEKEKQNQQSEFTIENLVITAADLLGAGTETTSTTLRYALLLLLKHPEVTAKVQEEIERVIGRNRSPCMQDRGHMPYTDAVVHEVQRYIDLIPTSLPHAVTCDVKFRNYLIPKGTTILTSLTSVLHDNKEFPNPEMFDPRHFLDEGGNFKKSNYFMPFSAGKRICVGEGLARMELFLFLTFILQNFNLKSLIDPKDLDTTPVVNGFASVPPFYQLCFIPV
CYP3A4, sequence (P08684 whole entry): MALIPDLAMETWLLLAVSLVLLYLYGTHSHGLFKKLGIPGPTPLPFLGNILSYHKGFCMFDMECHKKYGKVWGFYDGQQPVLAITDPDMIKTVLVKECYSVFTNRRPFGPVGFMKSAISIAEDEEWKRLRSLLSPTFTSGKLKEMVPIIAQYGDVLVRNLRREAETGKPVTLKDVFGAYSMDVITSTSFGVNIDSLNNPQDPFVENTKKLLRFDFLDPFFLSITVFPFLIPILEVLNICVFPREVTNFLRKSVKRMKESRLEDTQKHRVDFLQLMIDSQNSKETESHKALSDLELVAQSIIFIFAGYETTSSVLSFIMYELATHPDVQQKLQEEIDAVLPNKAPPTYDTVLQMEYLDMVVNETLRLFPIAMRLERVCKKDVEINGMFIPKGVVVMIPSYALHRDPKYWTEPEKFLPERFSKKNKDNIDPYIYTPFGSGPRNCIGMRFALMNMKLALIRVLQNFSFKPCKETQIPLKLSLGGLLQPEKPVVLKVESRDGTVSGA
CYP2D6, sequence (P10635 whole entry): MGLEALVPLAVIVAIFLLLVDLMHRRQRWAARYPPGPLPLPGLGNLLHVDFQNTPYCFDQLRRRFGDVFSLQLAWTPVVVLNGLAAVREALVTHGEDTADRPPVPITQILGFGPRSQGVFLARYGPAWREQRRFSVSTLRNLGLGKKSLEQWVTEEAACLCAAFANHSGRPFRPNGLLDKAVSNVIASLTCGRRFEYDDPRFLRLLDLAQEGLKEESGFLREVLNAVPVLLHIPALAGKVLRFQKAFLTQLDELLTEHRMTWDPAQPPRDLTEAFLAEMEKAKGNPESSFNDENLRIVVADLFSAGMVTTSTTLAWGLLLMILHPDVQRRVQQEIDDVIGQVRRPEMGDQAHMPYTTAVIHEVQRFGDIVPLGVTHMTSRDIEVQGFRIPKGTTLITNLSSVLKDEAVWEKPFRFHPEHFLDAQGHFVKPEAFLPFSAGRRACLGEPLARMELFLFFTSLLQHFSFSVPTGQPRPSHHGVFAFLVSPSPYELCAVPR

Row | SMILES | inhibition at 25 µM (SW-620) | also measured
1 | COc1cc2ccccc2cc1C(=O)NC(=S)Nc1ccc(-c2nc3ccccc3s2)cn1 | 71.9% | 
2 | COc1ccccc1NC(=S)Nc1ccc(-c2nc3ccccc3o2)cc1 | 29.2% | 
3 | COc1cc2ccccc2cc1C(=O)NC(=O)Nc1ccc(-c2nc3ccccc3[nH]2)cc1 | 90.8% | Fu [1]: < 0.3%; Fu [2]: < 0.3%
4 | COc1cc2ccccc2cc1C(=O)NC(=O)Nc1ccc(-c2nc3ccccc3o2)cc1 | 0% | 
5 | O=C(NC(=O)c1ccc2ccccc2c1)Nc1ccc(-c2nc3ccccc3[nH]2)cc1 | 12.7% | 
6 | COc1ccccc1C(=O)NC(=S)Nc1ccc(-c2nc3ccccc3o2)cc1 | 17.2% | 
7 | COc1cc2ccccc2cc1C(=O)NC(=S)Nc1ccc(-c2nc3ccccc3o2)cc1 | 57.6% | Fu [2]: < 0.03%
8 | COc1cc2ccccc2cc1C(=O)NC(=O)Nc1ccc(-c2cscn2)cc1 | 42.6% | Fu [1]: < 0.3%; Fu [2]: < 0.3%
9 | O=C1c2ccccc2CCN1C(=S)Nc1ccc(-c2nc3ccccc3o2)cc1 | 0% | Fu [1]: < 0.03%
10 | COc1cc2ccccc2cc1C(=O)Nc1ccc(-c2nc3ccccc3s2)cc1 | 42.3% | 
11 | COc1cc2ccccc2cc1C(=O)NC(=S)Nc1ccc(-c2ncco2)cc1 | 33.1% | 
12 | COc1cc2ccccc2cc1C(=O)NC(=S)Nc1ccc(-c2cscn2)cc1 | 29% | 
13 | COc1cc2ccccc2cc1C(=O)NC(=S)Nc1ccc(-c2nc3ccccc3[nH]2)cc1 | 68.4% | Fu [1]: < 0.03%; Fu [2]: < 0.01%
14 | CCOc1cc2ccccc2cc1C(=O)NC(=S)Nc1ccc(-c2nc3ccccc3s2)cc1 | 13% | 
15 | CCOc1cc2ccccc2cc1C(=O)NC(=S)Nc1ccc(-c2nc3ccccc3o2)cc1 | 0% | 
16 | COc1ccccc1NC(=S)Nc1ccc(-c2nc3ccccc3[nH]2)cc1 | 13.2% | 
17 | O=C1c2ccccc2CCN1C(=S)Nc1ccc(-c2ncco2)cc1 | 0.9% | 
18 | COc1cc2ccccc2cc1C(=O)NC(=S)Nc1ccc(-c2ncc[nH]2)cc1 | 89.9% | half-life [3]: 2.49 h; AUC(0-inf) [4]: 15900 ng·h/mL; inhibition at 10 µM (CYP3A4): 28%; inhibition at 10 µM (CYP2C19): 43%; MRT [5]: 2.7 h; inhibition at 10 µM (CYP2D6): 36%; Cmax [6]: 5060 ng/mL; Tmax [7]: 1 h
19 | O=C(NC(=S)Nc1ccc(-c2nc3ccccc3o2)cc1)c1ccc2ccccc2c1 | 76.4% | Fu [1]: < 0.04%; Fu [2]: < 0.03%

Row | SMILES | inhibition at 25 µM (SW-620) | also measured
20 | O=C(NC(=S)Nc1ccc(-c2nc3ccccc3[nH]2)cc1)c1ccc2cccnc2c1 | 0% | 
21 | COc1cc2ccccc2cc1C(=O)NC(=S)Nc1ccc(-c2nccs2)cc1 | 34.8% | Fu [2]: 2.2%
22 | COc1cc2ccccc2cc1C(=O)NC(=S)Nc1ccc(-c2ncon2)cc1 | 18.4% | Fu [2]: < 0.03%
23 | CCOc1cc2ccccc2cc1C(=O)NC(=S)Nc1ccc(-c2nnco2)cc1 | 0% | 
24 | CC(C)Oc1cc2ccccc2cc1C(=O)NC(=S)Nc1ccc(-c2nc3ccccc3o2)cc1 | 17.2% | 
25 | COc1ccccc1C(=O)NC(=S)Nc1ccc(-c2nc3ccccc3[nH]2)cc1 | 16.9% | 
26 | COc1ccccc1NC(=O)Nc1ccc(-c2nc3ccccc3o2)cc1 | 19.9% | 
27 | COc1cc2ccccc2cc1C(=O)NC(=S)Nc1ccc(-c2nc3ccccc3o2)cn1 | 0% | 
28 | COc1cc2ccccc2cc1C(=O)Nc1ncc(C(F)(F)F)s1 | 17.6% | 
29 | O=C(Nc1ccc(N2CCN(C(=O)c3ccc4ccccc4c3)CC2)cc1)c1cc2ccccc2o1 | 27.8% | 
30 | COc1cc2ccccc2cc1C(=O)NC(=O)Nc1ccc(-c2nc3ccccc3s2)cc1 | 0% | 
31 | COc1ccccc1NC(=O)Nc1ccc(-c2nc3ccccc3[nH]2)cc1 | 23.8% | 
32 | COc1cc2ccccc2cc1C(=O)NC(=S)Nc1ccc(-c2nc3ccccc3s2)cc1 | 7.1% | 
33 | COc1cc2c(OC)cccc2cc1C(=O)NC(=S)Nc1ccc(-c2nc3ccccc3[nH]2)cc1 | 37.6% | 
34 | O=C(NC(=S)Nc1ccc(-c2ncco2)cc1)c1ccc2cccnc2c1 | 1.4% | 
35 | O=C(NC(=S)Nc1ccc(-c2nc3ccccc3o2)cc1)c1ccc2cccnc2c1 | 0% | 
36 | COc1cc2c(OC)cccc2cc1C(=O)NC(=S)Nc1ccc(-c2nc3ccccc3s2)cc1 | 15.8% | 
37 | COc1cc2ccccc2cc1C(=O)NC(=S)Nc1ccc(-c2nnco2)cc1 | 86.5% | half-life [3]: 3.51 h; AUC(0-inf) [4]: 34100 ng·h/mL; inhibition at 10 µM (CYP3A4): 16%; inhibition at 10 µM (CYP2C19): 37%; MRT [5]: 5.3 h; inhibition at 10 µM (CYP2D6): 19%; Cmax [6]: 5100 ng/mL; Tmax [7]: 2.33 h
38 | O=C(Nc1ccc(N2CCN(C(=O)c3ccccn3)CC2)cc1)c1cc2ccccc2o1 | 44.8% | 
